Laboratory results as given in the CheMixHub viscosity set.

Assay: xn = mol fraction of the nth substance listed

CCCNCCC + CCCCOCCO
viscosity [mPa·s], 100 kPa
Details | 298.15 K | 303.15 K | 308.15 K
x2 = 0.05 | 0.558 | 0.519 | 0.489
x2 = 0.1003 | 0.62 | 0.576 | 0.538
x2 = 0.1502 | 0.691 | 0.64 | 0.597
x2 = 0.1999 | 0.775 | 0.709 | 0.662
x2 = 0.2999 | 0.982 | 0.888 | 0.826
x2 = 0.3998 | 1.254 | 1.118 | 1.035
x2 = 0.5001 | 1.549 | 1.37 | 1.255
x2 = 0.5999 | 1.887 | 1.654 | 1.51
x2 = 0.6997 | 2.216 | 1.935 | 1.752
x2 = 0.7999 | 2.527 | 2.18 | 1.97
x2 = 0.8996 | 2.731 | 2.356 | 2.141
x2 = 0.9499 | 2.787 | 2.437 | 2.209

COC(=O)c1ccccc1O + CS(C)=O
303.15 K, 101 kPa
Details | viscosity [mPa·s]
x1 = 0.1215 | 1.932
x1 = 0.1918 | 2.13
x1 = 0.2697 | 2.186
x1 = 0.3567 | 2.283
x1 = 0.5628 | 2.356
x1 = 0.6882 | 2.38
x1 = 0.8323 | 2.403

Cc1ccccc1[N+](=O)[O-] + Cc1ccc(C)cc1
308.15 K, 101.33 kPa
Details | viscosity [mPa·s]
x2 = 0.1044 | 1.342
x2 = 0.2016 | 1.153
x2 = 0.2968 | 1.034
x2 = 0.4024 | 0.942
x2 = 0.4938 | 0.879
x2 = 0.6032 | 0.81
x2 = 0.6951 | 0.754
x2 = 0.8009 | 0.681
x2 = 0.8955 | 0.624

OC(c1ccccc1)(c1ccccc1)c1ccccc1 + CCCCCOC(C)=O
Details | viscosity [mPa·s]
298.15 K, 101 kPa, x2 = 0.5 | 1.9

CCOC(=O)c1ccccc1 + CCCCCCCC
101 kPa
Details | viscosity [mPa·s]
298.15 K, x2 = 0.0634 | 1.743
298.15 K, x2 = 0.1034 | 1.624
298.15 K, x2 = 0.1463 | 1.503
298.15 K, x2 = 0.1843 | 1.405
298.15 K, x2 = 0.2315 | 1.299
298.15 K, x2 = 0.2774 | 1.203
298.15 K, x2 = 0.3224 | 1.125
298.15 K, x2 = 0.4189 | 0.973
298.15 K, x2 = 0.4608 | 0.92
298.15 K, x2 = 0.5113 | 0.861
298.15 K, x2 = 0.5549 | 0.813
298.15 K, x2 = 0.6018 | 0.767
298.15 K, x2 = 0.6476 | 0.726
298.15 K, x2 = 0.6978 | 0.686
298.15 K, x2 = 0.7588 | 0.644
298.15 K, x2 = 0.8037 | 0.616
298.15 K, x2 = 0.8646 | 0.583
298.15 K, x2 = 0.9214 | 0.556
303.15 K, x1 = 0.1144 | 0.526
303.15 K, x1 = 0.2227 | 0.58
303.15 K, x1 = 0.3291 | 0.655
303.15 K, x1 = 0.4327 | 0.738
303.15 K, x1 = 0.532 | 0.837
303.15 K, x1 = 0.6312 | 0.961
303.15 K, x1 = 0.7281 | 1.11
303.15 K, x1 = 0.8205 | 1.29
303.15 K, x1 = 0.9123 | 1.505
308.15 K, x1 = 0.1144 | 0.499
308.15 K, x1 = 0.2227 | 0.552
308.15 K, x1 = 0.3291 | 0.616
308.15 K, x1 = 0.4327 | 0.697
308.15 K, x1 = 0.532 | 0.786
308.15 K, x1 = 0.6312 | 0.896
308.15 K, x1 = 0.7281 | 1.033
308.15 K, x1 = 0.8205 | 1.197
308.15 K, x1 = 0.9123 | 1.385
308.15 K, x2 = 0.0649 | 1.485
308.15 K, x2 = 0.1092 | 1.382
308.15 K, x2 = 0.1488 | 1.3
308.15 K, x2 = 0.193 | 1.212
308.15 K, x2 = 0.2347 | 1.13
308.15 K, x2 = 0.2789 | 1.054
308.15 K, x2 = 0.3252 | 0.98
308.15 K, x2 = 0.3696 | 0.919
308.15 K, x2 = 0.4206 | 0.854
308.15 K, x2 = 0.4626 | 0.807
308.15 K, x2 = 0.5118 | 0.757
308.15 K, x2 = 0.5624 | 0.709
308.15 K, x2 = 0.5958 | 0.682
308.15 K, x2 = 0.6528 | 0.639
308.15 K, x2 = 0.7049 | 0.605
308.15 K, x2 = 0.756 | 0.575
308.15 K, x2 = 0.8027 | 0.55
308.15 K, x2 = 0.8565 | 0.525
308.15 K, x2 = 0.9175 | 0.501
313.15 K, x1 = 0.1144 | 0.468
313.15 K, x1 = 0.2227 | 0.516
313.15 K, x1 = 0.3291 | 0.574
313.15 K, x1 = 0.4327 | 0.649
313.15 K, x1 = 0.532 | 0.732
313.15 K, x1 = 0.6312 | 0.835
313.15 K, x1 = 0.7281 | 0.961
313.15 K, x1 = 0.8205 | 1.105
313.15 K, x1 = 0.9123 | 1.277
318.15 K, x2 = 0.0385 | 1.272
318.15 K, x2 = 0.0833 | 1.188
318.15 K, x2 = 0.1243 | 1.117
318.15 K, x2 = 0.1716 | 1.038
318.15 K, x2 = 0.2145 | 0.972
318.15 K, x2 = 0.263 | 0.905
318.15 K, x2 = 0.3062 | 0.85
318.15 K, x2 = 0.356 | 0.793
318.15 K, x2 = 0.4002 | 0.747
318.15 K, x2 = 0.4505 | 0.698
318.15 K, x2 = 0.4957 | 0.662
318.15 K, x2 = 0.5474 | 0.622
318.15 K, x2 = 0.5939 | 0.592
318.15 K, x2 = 0.6472 | 0.56
318.15 K, x2 = 0.6945 | 0.536
318.15 K, x2 = 0.7483 | 0.51
318.15 K, x2 = 0.7987 | 0.491
318.15 K, x2 = 0.8549 | 0.469
318.15 K, x2 = 0.9034 | 0.452

CC1CCCCC1 + CCCCCCCCCCCC
viscosity [mPa·s], 101 kPa
Details | x1 = 0.1004 | x1 = 0.2017 | x1 = 0.2968 | x1 = 0.406 | x1 = 0.5059 | x1 = 0.6011 | x1 = 0.6993 | x1 = 0.7989 | x1 = 0.898
298.15 K | 1.303 | – | – | 1.084 | 1.014 | 0.948 | 0.88 | 0.811 | 0.744
303.15 K | 1.186 | 1.124 | 1.067 | 1.004 | 0.94 | – | 0.821 | 0.756 | 0.694
308.15 K | 1.096 | 1.037 | 0.981 | 0.919 | 0.862 | 0.809 | 0.755 | 0.701 | 0.647

Cc1cccc([N+](=O)[O-])c1 + CC1CCCCC1
303.15 K, 101.33 kPa
Details | viscosity [mPa·s]
x1 = 0.202 | 0.77
x1 = 0.4 | 0.89
x1 = 0.6 | 1.09
x1 = 0.799 | 1.43

CC(C)O + CCO
101 kPa
Details | viscosity [mPa·s]
298.15 K, x2 = 0.214 | 1.796
298.15 K, x2 = 0.393 | 1.607
298.15 K, x2 = 0.565 | 1.445
298.15 K, x2 = 0.725 | 1.299
298.15 K, x2 = 0.869 | 1.182
308.15 K, x2 = 0.5 | 1.186
313.15 K, x2 = 0.5 | 1.066
318.15 K, x2 = 0.5 | 0.9542

CCCCCCCCCl + CCCCCCCCCC
298 K, 101.3 kPa
Details | viscosity [mPa·s]
x2 = 0.1115 | 1.067
x2 = 0.2067 | 1.026
x2 = 0.3061 | 0.9966
x2 = 0.4041 | 0.969
x2 = 0.505 | 0.9433
x2 = 0.6124 | 0.9242
x2 = 0.707 | 0.8969
x2 = 0.797 | 0.8862
x2 = 0.8983 | 0.874

CC(=O)[O-].CCCC[NH2+]CCO + CCCCn1cc[n+](C)c1.COP(=O)([O-])OC
viscosity [mPa·s], 101 kPa
Details | x1 = 0.1014 | x1 = 0.2979 | x1 = 0.4067 | x1 = 0.4989 | x1 = 0.8011 | x1 = 0.8913
293.15 K | 730.5 | – | – | 502.5 | 741.5 | –
298.15 K | – | 392.5 | 359.5 | – | – | 632.5

CCCCCN + Cc1ccccc1
303.15 K, 101 kPa
Details | viscosity [mPa·s]
x2 = 0.1128 | 0.556
x2 = 0.2313 | 0.5323
x2 = 0.3808 | 0.5104
x2 = 0.4933 | 0.5008
x2 = 0.5377 | 0.4969
x2 = 0.6473 | 0.4932
x2 = 0.7388 | 0.4938
x2 = 0.8447 | 0.4984
x2 = 0.9229 | 0.5071

c1cscn1 + ClC(Cl)(Cl)Cl
298.15 K, 101 kPa
Details | viscosity [mPa·s]
x1 = 0.1198 | 0.9186
x1 = 0.2066 | 0.9327
x1 = 0.2139 | 0.933
x1 = 0.2899 | 0.9459
x1 = 0.3525 | 0.9561
x1 = 0.4862 | 0.9809
x1 = 0.592 | 0.994
x1 = 0.689 | 1.007
x1 = 0.7728 | 1.01
x1 = 0.8194 | 1.011
x1 = 0.8719 | 1.011
x1 = 0.9315 | 1.006

CCCCCl + CCC(C)O
viscosity [mPa·s], 101 kPa
Details | x1 = 0.0997 | x1 = 0.1976 | x1 = 0.3052 | x1 = 0.4049 | x1 = 0.497 | x1 = 0.606 | x1 = 0.7022 | x1 = 0.8053 | x1 = 0.9038
298.15 K | 1.98 | 1.379 | 1.015 | 0.8086 | 0.6823 | 0.5809 | 0.5176 | 0.469 | 0.4366
313.15 K | 1.234 | 0.9264 | 0.7261 | 0.6063 | 0.5279 | 0.4628 | 0.4198 | 0.3877 | 0.3663
